Results reported in PubChem BioAssay AID1963970 (Molecular Pharmacology Branch, DTP, NCI, 2024).

Test system: 931267-113-T-J1-PDC multicell spheroid viability
Experiment: Anticancer human tumor 931267-113-T-J1-PDC patient-derived colon adenocarcinoma cell line growth inhibition [PI3K]
Conditions: for IC50: curve of first compound; for viability, T/C: stronger effect = lower value
Description: Combinatorial screen of targeted agents with the PI3K inhibitors inavolisib, alpelisib, duvelisib, and copanlisib in multi-cell type tumor spheroids
A high-throughput screen of multi-cell type tumor spheroids was designed to identify active combinations of targeted small molecules and PI3K pathway inhibitors. Complex spheroids include a stromal component modeled by human endothelial cells (HUVEC) and fibroblasts modeled by human mesenchymal stem cells (MSCs). The concentration ranges selected for each drug and investigational agent were based upon clinically achievable concentrations if the clinical Cmax of the agent was known.
Compounds. The drugs and investigational agents: inavolisib (NSC800729), alpelisib (NSC765974), duvelisib (NSC772469), copanlisib (NSC816437), ipatasertib (NSC767898), afuresertib (NSC778305), talazoparib (NSC767125), sapanisertib (NSC764658), selumetinib (NSC741078), tovorafenib (DAY101, NSC766906), vemurafenib (NSC761431), ravoxertinib (NSC781343), sotorasib (NSC818433), MRTX1133 (NSC 836407), abemaciclib (NSC 768073), palbociclib (NSC758247), venetoclax (NSC 766270), SY5609 (NSC837396), enzalutamide (NSC755605), and darolutamide (NSC825331), were obtained from the National Cancer Institute (NCI) Developmental Therapeutics Program Chemical Repository. The FDA-approved anticancer drug set is available from the NCI Developmental Therapeutics Program. […] The stock solutions were prepared in dimethyl sulfoxide (DMSO, Sigma-Aldrich, St. Louis, MO, cat. D2650) at 800-fold the tested concentration and stored at -70 degrees C prior to their use. All drugs and investigational agents were tested over a range starting from a high concentration at or near the clinical Cmax and decreasing in half-log increments. If the clinical Cmax for an agent had not been determined, the highest concentration tested was 10 microM.
Cell Culture. All cells were maintained in an incubator at 37 degrees C and 5% CO2 with 95% humidity. The PDC lines were cultured according to standard operating procedures established by the NCI PDMR (https://pdmr.cancer.gov/sops/default.htm). All PDCs were thawed and cultured in Matrigel-coated flasks prepared with a working solution of 1X Ham's F-12 nutrient mix, without supplementation (Invitrogen, Waltham, MA, cat. 11765054), 100 U/mL penicillin-streptomycin (Invitrogen, cat. 15140122), and 2.5% Matrigel (Corning Inc., Corning, NY, cat. 354248) for the first three passages. The 354836-022-R-J1-PDC, 475296-252-R-J1-PDC, and 997726-040-R-J2-PDC lines were cultured in 6A media, which includes advanced DMEM/F-12 (Thermo Fisher Scientific, cat. 12634028), 10 mM HEPES (Thermo Fisher Scientific, cat. 15630080), 1X GlutaMAX supplement (Thermo Fisher Scientific, cat. 35050061), 0.1 mg/mL primocin (InvivoGen, San Diego, CA, cat. ant-pm-2), 10% defined fetal bovine serum, heat inactivated (HyClone Laboratories Inc., Logan, UT, cat. SH30070.03HI), 50% L-WRN conditioned media (ATCC, cat. CRL-3276), 1.25 mM N-Acetyl-L-cysteine (Sigma-Aldrich, cat. A9165), 10 mM nicotinamide (Sigma-Aldrich, cat. N0636), 1X B-27 supplement (Thermo Fisher Scientific, cat. 17504044), 1X N-2 supplement (Thermo Fisher Scientific, cat. 17502048), and 10 microM Y-27632 dihydrochloride (Tocris Bioscience, Bristol, United Kingdom, cat. 1254). The 624824-186-R-J2-PDC line was cultured in 6C/Colon 1B media, which includes all 6A media components plus 50 ng/mL human EGF recombinant protein (Thermo Fisher Scientific, cat. PHG0311). […]

[1] = second compound 0.0316 µM, first compound 0.000316 µM
[2] = second compound 0.0316 µM, first compound 0.001 µM
[3] = second compound 0.0316 µM, first compound 0.00316 µM
[4] = second compound 0.0316 µM, first compound 0.01 µM
[5] = second compound 0.0316 µM, first compound 0.0316 µM
[6] = second compound 0.0316 µM, first compound 0.1 µM
[7] = second compound 0.1 µM, first compound 0.000316 µM
[8] = second compound 0.1 µM, first compound 0.001 µM
[9] = second compound 0.1 µM, first compound 0.00316 µM
[10] = second compound 0.1 µM, first compound 0.01 µM
[11] = second compound 0.1 µM, first compound 0.0316 µM
[12] = second compound 0.1 µM, first compound 0.1 µM
[13] = second compound 0.316 µM, first compound 0.000316 µM
[14] = second compound 0.316 µM, first compound 0.001 µM
[15] = second compound 0.316 µM, first compound 0.00316 µM
[16] = second compound 0.316 µM, first compound 0.01 µM
[17] = second compound 0.316 µM, first compound 0.0316 µM
[18] = second compound 0.316 µM, first compound 0.1 µM
[19] = second compound 1 µM, first compound 0.000316 µM
[20] = second compound 1 µM, first compound 0.001 µM
[21] = second compound 1 µM, first compound 0.00316 µM
[22] = second compound 1 µM, first compound 0.01 µM
[23] = second compound 1 µM, first compound 0.0316 µM
[24] = second compound 1 µM, first compound 0.1 µM
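Also: viability read 7 days after compound addition.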

Cn1ncnc1[C@H]1c2n[nH]c(=O)c3cc(F)cc(c23)N[C@@H]1c1ccc(F)cc1 + CC(Nc1ncnc2nc[nH]c12)c1cc2cccc(Cl)c2c(=O)n1-c1ccccc1
IC50 (second compound 0.0316 µM): > 0.1 µM | IC50 (second compound 0.1 µM): > 0.1 µM | IC50 (second compound 0.316 µM): > 0.1 µM | IC50 (second compound 1 µM): > 0.1 µM | IC50 (second compound 3.16 µM): > 0.1 µM | IC50 (second compound 10 µM): > 0.1 µM | viability, T/C [1]: 105% | viability, T/C [2]: 102% | viability, T/C [3]: 102% | viability, T/C [4]: 99.6% | viability, T/C [5]: 114% | viability, T/C [6]: 103% | viability, T/C [7]: 117% | viability, T/C [8]: 112% | viability, T/C [9]: 96% | viability, T/C [10]: 98.5% | viability, T/C [11]: 111% | viability, T/C [12]: 95.3% | viability, T/C [13]: 110% | viability, T/C [14]: 113% | viability, T/C [15]: 110% | viability, T/C [16]: 102% | viability, T/C [17]: 108% | viability, T/C [18]: 106% | viability, T/C [19]: 109% | viability, T/C [20]: 108% | viability, T/C [21]: 101% | viability, T/C [22]: 100% | viability, T/C [23]: 100% | viability, T/C [24]: 104% | viability, T/C (second compound 3.16 µM, first compound 0.000316 µM): 104% | viability, T/C (second compound 3.16 µM, first compound 0.001 µM): 101% | viability, T/C (second compound 3.16 µM, first compound 0.00316 µM): 99.4% | viability, T/C (second compound 3.16 µM, first compound 0.01 µM): 97.6% | viability, T/C (second compound 3.16 µM, first compound 0.0316 µM): 112% | viability, T/C (second compound 3.16 µM, first compound 0.1 µM): 93.3% | viability, T/C (second compound 10 µM, first compound 0.000316 µM): 103% | viability, T/C (second compound 10 µM, first compound 0.001 µM): 94.6% | viability, T/C (second compound 10 µM, first compound 0.00316 µM): 87.4% | viability, T/C (second compound 10 µM, first compound 0.01 µM): 98.8% | viability, T/C (second compound 10 µM, first compound 0.0316 µM): 100% | viability, T/C (second compound 10 µM, first compound 0.1 µM): 88.1%

Cn1nccc1Nc1nccc(-c2ccn(C(CO)c3ccc(Cl)c(F)c3)c(=O)c2)n1 (stereo not given)
viability, T/C (compound 0.0316 µM): 100% [middle of 4 runs] | viability, T/C (compound 0.1 µM): 91.3% [middle of 4 runs] | viability, T/C (compound 0.316 µM): 90.2% [middle of 4 runs] | viability, T/C (compound 1 µM): 74.1% [middle of 4 runs] | viability, T/C (compound 3.16 µM): 67.2% [middle of 4 runs] | viability, T/C (compound 10 µM): 40.4% [middle of 4 runs]

Cn1ncnc1[C@H]1c2n[nH]c(=O)c3cc(F)cc(c23)N[C@@H]1c1ccc(F)cc1 + COc1c(OCCCN2CCOCC2)ccc2c3n(c(=NC(=O)c4cnc(N)nc4)nc12)CCN3
IC50 (second compound 0.00316 µM): > 0.1 µM | IC50 (second compound 0.01 µM): > 0.1 µM | IC50 (second compound 0.0316 µM): > 0.1 µM | IC50 (second compound 0.1 µM): > 0.1 µM | IC50 (second compound 0.316 µM): 0.00113 µM | IC50 (second compound 1 µM): < 0.000316 µM | viability, T/C (second compound 0.00316 µM, first compound 0.000316 µM): 103% | viability, T/C (second compound 0.00316 µM, first compound 0.001 µM): 107% | viability, T/C (second compound 0.00316 µM, first compound 0.00316 µM): 107% | viability, T/C (second compound 0.00316 µM, first compound 0.01 µM): 98.7% | viability, T/C (second compound 0.00316 µM, first compound 0.0316 µM): 106% | viability, T/C (second compound 0.00316 µM, first compound 0.1 µM): 93.9% | viability, T/C (second compound 0.01 µM, first compound 0.000316 µM): 103% | viability, T/C (second compound 0.01 µM, first compound 0.001 µM): 97.9% | viability, T/C (second compound 0.01 µM, first compound 0.00316 µM): 94.2% | viability, T/C (second compound 0.01 µM, first compound 0.01 µM): 89.2% | viability, T/C (second compound 0.01 µM, first compound 0.0316 µM): 93% | viability, T/C (second compound 0.01 µM, first compound 0.1 µM): 91.3% | viability, T/C [1]: 85.2% | viability, T/C [2]: 88.9% | viability, T/C [3]: 82.1% | viability, T/C [4]: 83% | viability, T/C [5]: 81.8% | viability, T/C [6]: 79% | viability, T/C [7]: 70.2% | viability, T/C [8]: 68.5% | viability, T/C [9]: 70.7% | viability, T/C [10]: 66% | viability, T/C [11]: 69% | viability, T/C [12]: 61.3% | viability, T/C [13]: 54.3% | viability, T/C [14]: 52.5% | viability, T/C [15]: 46.1% | viability, T/C [16]: 43.4% | viability, T/C [17]: 46.4% | viability, T/C [18]: 43.4% | viability, T/C [19]: 33.3% | viability, T/C [20]: 34.1% | viability, T/C [21]: 30.9% | viability, T/C [22]: 34.4% | viability, T/C [23]: 36.6% | viability, T/C [24]: 30.3%
